Measured values: patent US8987311B2, “Triazolyl-substituted pyridyl compounds useful as kinase inhibitors” (Bristol-Myers Squibb Company, priority 2012, dated 2015)

What follows are molecules tested against T1, IRAK4 (Homo sapiens, UniProt Q9NWZ3) (assay: IRAK4 Inhibition Assay). Details: ATP 500 μM; FL-IPTSPITTTYFFFKKK peptide 1.5 μM; IRAK4 0.6 nM; 60 min room temperature; Caliper LabChip 3000.
T1 sequence (Q9NWZ3 1-460): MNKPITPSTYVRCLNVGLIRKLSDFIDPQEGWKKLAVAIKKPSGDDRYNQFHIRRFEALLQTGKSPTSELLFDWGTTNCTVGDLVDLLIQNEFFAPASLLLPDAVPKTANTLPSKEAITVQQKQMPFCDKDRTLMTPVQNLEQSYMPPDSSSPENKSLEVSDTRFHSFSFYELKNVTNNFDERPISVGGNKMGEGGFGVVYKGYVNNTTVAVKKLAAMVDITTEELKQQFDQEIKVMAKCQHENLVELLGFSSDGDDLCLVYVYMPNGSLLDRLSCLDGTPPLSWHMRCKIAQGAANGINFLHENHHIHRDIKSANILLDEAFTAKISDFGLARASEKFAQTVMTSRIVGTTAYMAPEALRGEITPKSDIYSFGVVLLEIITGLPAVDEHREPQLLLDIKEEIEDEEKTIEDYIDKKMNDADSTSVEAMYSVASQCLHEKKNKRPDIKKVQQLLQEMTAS
Assay type: biochemical
Procedure: The assays were performed in U-bottom 384-well plates. The final assay volume was 30 μL prepared from 15 μL additions of enzyme and substrates (fluoresceinated peptide and ATP) and test compounds in assay buffer (20 mM HEPES pH 7.2, 10 mM MgCl2, 0.015% Brij35 and 4 mM DTT). The reaction was initiated by the combination of IRAK4 with substrates and test compounds. The reaction was incubated at room temperature for 60 min. and terminated by adding 45 μL of 35 mM EDTA to each sample. The reaction mixture was analyzed on the Caliper LabChip 3000 (Caliper, Hopkinton, Mass.) by electrophoretic separation of the fluorescent substrate and phosphorylated product. Inhibition data were calculated by comparison to no enzyme control reactions for 100% inhibition and vehicle-only reactions for 0% inhibition. The final concentrations of reagents in the assays are ATP, 500 μM; FL-IPTSPITTTYFFFKKK peptide 1.5 μM; IRAK4, 0.6 nM; and DMSO, 1.6%.

| IC50 [nM] | SMILES |
| --- | --- |
| 795 | CC(C)Nc1cc(Nc2ccc3ncsc3c2)ncc1-c1nc(C(=O)NCC2CCCCC2)cs1 [Example 56, 2-(6-(Benzo[d]thiazol-6-ylamino)-4-(isopropylamino)pyridin-3-yl)-N-(cyclohexylmethyl)thiazole-4-carboxamide] |
| 2.8 | CC(C)Nc1cc(Nc2ccc3ncsc3c2)ncc1-c1nnc(C(=O)N2CCC(O)C2)s1 (single isomer, unassigned) [Example 6, (5-(6-(Benzo[d]thiazol-6-ylamino)-4-(isopropylamino)pyridin-3-yl)-1,3,4-thiadiazol-2-yl)(3-hydroxypyrrolidin-1-yl)methanone] |
| 24 | CC(C)Nc1cc(Nc2ccc3ncsc3c2)ncc1-c1nc(C(=O)NCC2CCCO2)cs1 (centres unmarked) [Example 59, 2-(6-(Benzo[d]thiazol-6-ylamino)-4-(isopropylamino)pyridin-3-yl)-N-((tetrahydrofuran-2-yl)methyl)thiazole-4-carboxamide] |
| 25.3 | CC(C)Nc1cc(Nc2ccc3ncsc3c2)ncc1-c1nnc[nH]1 [Example 1, N2-(benzo[d]thiazol-6-yl)-N4-isopropyl-5-(4H-1,2,4-triazol-3-yl)pyridine-2,4-diamine] |
| 813 | CC(C)Nc1cc(Nc2ccc3ncsc3c2)ncc1-c1ccc2cn[nH]c2c1 [Example 177, N2-(Benzo[d]thiazol-6-yl)-5-(1H-indazol-6-yl)-N4-isopropylpyridine-2,4-diamine] |
| 676 | CC(C)Nc1cc(Nc2ccc3ncsc3c2)ncc1-c1nnc(-c2ccc(F)c(S(=O)(=O)NC(C)(C)C)c2)o1 [Example 143, 5-(5-(6-(Benzo[d]thiazol-6-ylamino)-4-(isopropylamino)pyridin-3-yl)-1,3,4-oxadiazol-2-yl)-N-(tert-butyl)-2-fluorobenzenesulfonamide] |
| 764 | CC(C)Nc1cc(Nc2ccc3ncsc3c2)ncc1-c1nc(C(=O)N2CCN(c3ccc(F)cc3F)CC2)cs1 [Example 31, (2-(6-(Benzo[d]thiazol-6-ylamino)-4-(isopropylamino)pyridin-3-yl)thiazol-4-yl)(4-(2,4-difluorophenyl)piperazin-1-yl)methanone] |
| 26.4 | CC(C)Nc1cc(Nc2ccc3ncsc3c2)ncc1-c1nnc(NC2CNC2)o1 [Example 128, 5-(5-(Azetidin-3-ylamino)-1,3,4-oxadiazol-2-yl)-N2-(benzo[d]thiazol-6-yl)-N4-isopropylpyridine-2,4-diamine] |
| 25.4 | CC(C)Nc1cc(Nc2ccc3ncsc3c2)ncc1-c1nnc(N2CCN(CCO)CC2)o1 [Example 129, 2-(4-(5-(6-(Benzo[d]thiazol-6-ylamino)-4-(isopropylamino)pyridin-3-yl)-1,3,4-oxadiazol-2-yl)piperazin-1-yl)ethanol] |
| 26 | CC(C)Nc1cc(Nc2ccc3ncsc3c2)ncc1-c1nc(C(=O)NC[C@H](O)c2ccccc2)cs1 [Example 81, (R)-2-(6-(Benzo[d]thiazol-6-ylamino)-4-(isopropylamino)pyridin-3-yl)-N-(2-hydroxy-2-phenylethyl)thiazole-4-carboxamide] |
| 3.3 | CC(=O)NC1CCN(C(=O)c2nnc(-c3cnc(Nc4ccc5ncsc5c4)cc3NC(C)C)s2)C1 (centres unmarked) [Example 8, N-(1-(5-(6-(benzo[d]thiazol-6-ylamino)-4-(isopropylamino)pyridin-3-yl)-1,3,4-thiadiazole-2-carbonyl)pyrrolidin-3-yl)acetamide] |
| 23 | CC(C)Nc1cc(Nc2ccc3ncsc3c2)ncc1-c1nnc(C(=O)N2CCC(N)CC2)o1 [Example 161, (4-Aminopiperidin-1-yl)(5-(6-(benzo[d]thiazol-6-ylamino)-4-(isopropylamino)pyridin-3-yl)-1,3,4-oxadiazol-2-yl)methanone] |
| 3.1 | CC(C)Nc1cc(Nc2ccc3ncsc3c2)ncc1-c1nc(C(=O)NCCCN2CCCC2)cs1 [Example 82, 2-(6-(Benzo[d]thiazol-6-ylamino)-4-(isopropylamino)pyridin-3-yl)-N-(3-(pyrrolidin-1-yl)propyl)thiazole-4-carboxamide] |
| 564 | CC(C)Nc1cc(Nc2ccc3ncsc3c2)ncc1-c1nnc(-c2cccc(C(N)=O)c2)o1 [Example 148, 3-(5-(6-(Benzo[d]thiazol-6-ylamino)-4-(isopropylamino)pyridin-3-yl)-1,3,4-oxadiazol-2-yl)benzamide] |
| 22.1 | CC(C)Nc1cc(Nc2ccc3ncsc3c2)ncc1-c1nnc(N2CCN(CCN3CCOCC3)CC2)o1 [Example 130, N2-(benzo[d]thiazol-6-yl)-N4-isopropyl-5-(5-(4-(2-morpholinoethyl)piperazin-1-yl)-1,3,4-oxadiazol-2-yl)pyridine-2,4-diamine] |
| 616 | COc1cccc(-c2cnc(Nc3ccc4ncsc4c3)cc2NC(C)C)n1 [Example 176, N6′-(Benzo[d]thiazol-6-yl)-N4′-isopropyl-6-methoxy-[2,3′-bipyridine]-4′,6′-diamine] |
| 875 | Cc1oc(-c2cnc(Nc3ccc4ncsc4c3)cc2NC(C)C)nc1NC(=O)OC(C)(C)C [Example 106, tert-butyl 2-(6-(benzo[d]thiazol-6-ylamino)-4-(isopropylamino)pyridin-3-yl)-5-methyloxazol-4-ylcarbamate] |
| 2.7 | Cc1sc(-c2cnc(Nc3ccc4ncsc4c3)cc2NC(C)C)nc1C(=O)NCCCN1CCCCC1 [Example 25, 2-(6-(benzo[d]thiazol-6-ylamino)-4-(isopropylamino)pyridin-3-yl)-5-methyl-N-(3-(piperidin-1-yl)propyl)thiazole-4-carboxamide] |
| 24.5 | NC(=O)c1nnc(-c2cnc(Nc3ccc4ncsc4c3)cc2N[C@H](CO)Cc2ccccc2)o1 [Example 152, (S)-5-(6-(Benzo[d]thiazol-6-ylamino)-4-((1-hydroxy-3-phenylpropan-2-yl)amino)pyridin-3-yl)-1,3,4-oxadiazole-2-carboxamide] |
| 22.9 | CC(C)Nc1cc(Nc2ccc(C#N)cc2)ncc1-c1nnc(NC[C@@H](F)CO)o1 [Example 115, (R)-4-((5-(5-((2-Fluoro-3-hydroxypropyl)amino)-1,3,4-oxadiazol-2-yl)-4-(isopropylamino)pyridin-2-yl)amino)benzonitrile] |
| 3.2 | CC(C)Nc1cc(Nc2ccc3ncsc3c2)ncc1-c1nnc(C(=O)N2CCC(O)C2)s1 (single isomer, unassigned) [Example 7, (5-(6-(Benzo[d]thiazol-6-ylamino)-4-(isopropylamino)pyridin-3-yl)-1,3,4-thiadiazol-2-yl)(3-hydroxypyrrolidin-1-yl)methanone] |
| 2.5 | CC(C)Nc1cc(Nc2ccc3nsnc3c2)ncc1-c1nnc(C(=O)N2CC[C@@H](O)C2)s1 [Example 3, (R)-(5-(6-(Benzo[c][1,2,5]thiadiazol-5-ylamino)-4-(isopropylamino)pyridin-3-yl)-1,3,4-thiadiazol-2-yl)-(3-hydroxypyrrolidin-1-yl)methanone] |
| 961 | CCOC(=O)c1nc(-c2cnc(Nc3ccc4ncsc4c3)cc2NC(C)C)sc1C [Example 23, Ethyl 2-(6-(benzo[d]thiazol-6-ylamino)-4-(isopropylamino)pyridin-3-yl)-5-methylthiazole-4-carboxylate] |
| 3.2 | CNC(=O)c1ccc(Nc2cc(Nc3ccc4ncsc4c3)ncc2-c2nnc(C(=O)N3CC[C@@H](O)C3)s2)cc1 [Example 19, (R)-4-((2-(benzo[d]thiazol-6-ylamino)-5-(5-(3-hydroxypyrrolidine-1-carbonyl)-1,3,4-thiadiazol-2-yl)pyridin-4-yl)amino)-N-methylbenzamide] |
| 576 | CC(C)Nc1cc(Nc2ccc3ncsc3c2)ncc1-c1nc(C(=O)N2CCC3(CC2)C(=O)NCN3c2ccccc2)cs1 [Example 48, 8-(2-(6-(Benzo[d]thiazol-6-ylamino)-4-(isopropylamino)pyridin-3-yl)thiazole-4-carbonyl)-1-phenyl-1,3,8-triazaspiro[4.5]decan-4-one] |
| 2.7 | CC(C)Nc1cc(Nc2ccc3ncsc3c2)ncc1-c1nc(C(N)=O)co1 [Example 108, 2-(6-(Benzo[d]thiazol-6-ylamino)-4-(isopropylamino)pyridin-3-yl)oxazole-4-carboxamide] |
